{"source": "patent US20080058249A1", "about": "“Complexes” (Lipopeptide AB, priority 2004, published 2008)", "key": {"[1]": {"target": "elastase from Pseudomonas aeruginosa (Pseudomonas aeruginosa, UniProt P14756)", "sequence (P14756 198-498)": "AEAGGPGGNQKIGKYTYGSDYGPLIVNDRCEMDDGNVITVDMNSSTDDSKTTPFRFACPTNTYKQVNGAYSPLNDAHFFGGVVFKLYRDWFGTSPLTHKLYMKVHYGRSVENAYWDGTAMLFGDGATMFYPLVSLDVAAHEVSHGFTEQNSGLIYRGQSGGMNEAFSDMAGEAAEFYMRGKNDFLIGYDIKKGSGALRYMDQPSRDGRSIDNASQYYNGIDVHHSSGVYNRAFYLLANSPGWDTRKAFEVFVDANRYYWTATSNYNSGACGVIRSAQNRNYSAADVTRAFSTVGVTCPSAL", "assay": "in vitro", "details": "for RRT 0.66 degradation fragment, normalized peak area / RRT 0.88 degradation fragment, normalized peak area: elastase:peptide approx. 1:2500, 37° C.", "protocol": "(§1) In this study we compared the enzymatic degradation rate of LL-37 in an aqueous buffered system to that of a colloidal solution of LL-37 in a galactolipid complex. The experimental procedures for enzymatic degradation were essentially as described using a reverse phase HPLC system (C-18) operating at 210 nm.\n(§2) In brief: Two stock solutions A and B were prepared. Solution A, “the reference”, contained 100 μg/ml of LL-37 in PBS, pH 7.4. Solution B, “the complex”, contained in addition to 100 μg/ml LL-37 in PBS, pH 7.4, 0.2% of galactolipids (w/w). Two sets of samples were prepared in Eppendorf tubes, 8 tubes from each stock solution. […] The reactions were kept at 37° C. and samples were withdrawn at predetermined intervals. The reactions were stopped by heating the samples to 100° C. for 5 minutes. After stopping, the reactions were stored at −18° C. prior analysis.\n(§3) All samples were analysed in duplicates and the peak area for LL-37 was normalized to that of the negative control, which was set to 1.00. Retention times are given as relative retention time (RRT) to LL-37, which is set to RRT=1.00."}, "[2]": {"tested_on": "elastase from Pseudomonas aeruginosa", "assay": "in vitro", "details": "isolated enzyme elastase, pH 7.4", "protocol": "as §1, §2, §3"}, "[3]": {"tested_on": "Bacillius megaterium", "assay": "Inhibition zone assay of antimicrobial activity", "type": "cell-based", "details": "complex with CPL-Galactolipid; LL-25 at 68 ppm", "protocol": "Test of antimicrobial activity of LL-20 and LL-25 complexes The antimicrobial activity was tested using an inhibition zone assay. As a test bacterium, Bacillius megaterium was used."}, "[4]": {"assay": "Ocular inspection of appearance of aqueous peptide/CPL-Galactolipid mixtures", "type": "physicochemical", "details": "after 2 h and 2 days of storage at room temperature; 0.20% CPL-Galactolipid; LL-25 68-98 ppm, LL-37 98-213 ppm, LL-38 50-102 ppm, LL-20 52-98 ppm", "protocol": "To prepare the solution of the complex the peptide and CPL-Galactolipid are weighed in a 100 ml glass flask and then PBS (10 mM sodium phosphate, 150 mM NaCl, pH 7.4) is added. The sample is vigorously shaken, using a suitable shaker at high speed, for 1-2 h or until the mixture has become clear, and is then allowed to equilibrate and settle for about 30 min at room temperature. Samples of LL-20, LL-25, LL-37 and LL-38 as trifluoroacetate salts and CPL-Galactolipid were prepared using the amounts stated in Table 1 below. The peptide mixtures all contained 0.20% CPL-Galactolipid.\nOcular inspections were made after 2 h and 2 days of storage at room temperature of the mixtures. […] The molecular weight of LL-20 was calculated to be 2.4 kDa."}, "[5]": {"details": "at certain weight ratios; cited from earlier work"}, "[6]": {"details": "when complexed with galactolipids; cited from earlier work"}}}
{"compound": "CC[C@H](C)[C@H](NC(=O)[C@H](CCCCN)NC(=O)[C@H](CCC(=O)O)NC(=O)[C@H](CCCCN)NC(=O)[C@H](CO)NC(=O)[C@H](CCCCN)NC(=O)[C@H](CCCNC(=N)N)NC(=O)[C@H](Cc1ccccc1)NC(=O)[C@H](Cc1ccccc1)NC(=O)[C@H](CC(=O)O)NC(=O)CNC(=O)[C@H](CC(C)C)NC(=O)[C@@H](N)CC(C)C)C(=O)NCC(=O)N[C@@H](CCCCN)C(=O)N[C@@H](CCC(=O)O)C(=O)N[C@@H](Cc1ccccc1)C(=O)N[C@@H](CCCCN)C(=O)N[C@@H](CCCNC(=N)N)C(=O)N[C@H](C(=O)N[C@H](C(=O)N[C@@H](CCC(N)=O)C(=O)N[C@@H](CCCNC(=N)N)C(=O)N[C@H](C(=O)N[C@@H](CCCCN)C(=O)N[C@@H](CC(=O)O)C(=O)N[C@@H](Cc1ccccc1)C(=O)N[C@@H](CC(C)C)C(=O)N[C@@H](CCCNC(=N)N)C(=O)N[C@@H](CC(N)=O)C(=O)N[C@@H](CC(C)C)C(=O)N[C@H](C(=O)N1CCC[C@H]1C(=O)N[C@@H](CCCNC(=N)N)C(=O)N[C@H](C(=O)N[C@@H](CCC(=O)O)C(=O)N[C@@H](CO)C(=O)O)[C@@H](C)O)C(C)C)[C@@H](C)CC)C(C)C)[C@@H](C)CC", "note": "[LL-37 in aqueous buffer]", "values": [{"measurement": "RRT 0.66 degradation fragment, normalized peak area", "setting": "[1]; 1 min", "value": 0.1}, {"measurement": "RRT 0.88 degradation fragment, normalized peak area", "setting": "[1]; 1 min", "value": 0.4}, {"measurement": "RRT 0.66 degradation fragment, normalized peak area", "setting": "[1]; 5 min", "value": 0.14}, {"measurement": "RRT 0.88 degradation fragment, normalized peak area", "setting": "[1]; 5 min", "value": 0.36}, {"measurement": "RRT 0.66 degradation fragment, normalized peak area", "setting": "[1]; 15 min", "value": 0.27}, {"measurement": "RRT 0.88 degradation fragment, normalized peak area", "setting": "[1]; 15 min", "value": 0.04}, {"measurement": "RRT 0.66 degradation fragment, normalized peak area", "setting": "[1]; 30 min", "value": 0.54}, {"measurement": "RRT 0.66 degradation fragment, normalized peak area", "setting": "[1]; 1 h", "value": 0.46}, {"measurement": "RRT 0.66 degradation fragment, normalized peak area", "setting": "[1]; 4 h", "value": 0.31}, {"measurement": "RRT 0.66 degradation fragment, normalized peak area", "setting": "[1]; 20 h", "value": 0.08}, {"measurement": "Degradation when treated with elastase", "setting": "[1]; elastase from Pseudomonas aeruginosa, 37° C., up to 20 h", "value": "rapidly degraded"}, {"measurement": "RRT 1.00 (LL-37) peak area normalized to negative control (1.00)", "setting": "[1]; time 0, 100 μg/ml LL-37, PBS pH 7.4, 37° C.", "value": 1.00}, {"measurement": "remaining at 1 min, 100 μg/ml", "setting": "[2]", "value": 30, "unit": "%"}, {"measurement": "remaining at 5 min, 100 μg/ml", "setting": "[2]", "value": 23, "unit": "%"}]}
{"compound": "LLGDFFRKSKEKIGKEFKRIVQRIK [LL-25]", "values": [{"measurement": "Antimicrobial activity", "setting": "[3]", "value": "showed an antimicrobial activity"}, {"measurement": "Ocular inspection of the mixtures", "setting": "[4]", "value": "clear or almost clear solutions"}]}
{"compound": "LLGDFFRKSKEKIGKEFKRIVQRIKDFLRNLVPRTES [LL-37]", "values": [{"measurement": "Formation of colloidal solutions with galactolipids", "setting": "[5]", "value": "formed stable, clear colloidal solutions"}, {"measurement": "Ocular inspection of the mixtures", "setting": "[4]", "value": "clear or almost clear solutions"}, {"measurement": "In vitro cytotoxicity", "setting": "[6]", "value": "reduced"}]}
{"compound": "LLGDFFRKSKEKIGKEFKRIVQRIKDFLRNLVPRTESS [LL-38]", "values": [{"measurement": "Ocular inspection of the mixtures", "setting": "[4]", "value": "clear or almost clear solutions"}]}
